Test results published in article PMC6368403, “Identification of a bilirubin receptor that may mediate a component of cholestatic itch” (eLife, 2019).
“And” between values parts separate entries of the source, which are not always exact repeats. Equal values may be shown once. Square brackets hold non-standard residues; d marks the D form. Peptide text beside a SMILES is read from it. * marks the point of attachment. Boc = CC(C)(C)OC(=O)*; OBn = c1ccc(CO*)cc1; For = O=C*

Key:
[1] = cited from earlier work
[2] = mouse, in vivo, 1 mg/kg
[3] = biological target: MRGPRA1, GFP-tagged (mouse) (UniProt Q91WW5)
MRGPRA1, GFP-tagged (mouse), sequence (Q91WW5 whole entry): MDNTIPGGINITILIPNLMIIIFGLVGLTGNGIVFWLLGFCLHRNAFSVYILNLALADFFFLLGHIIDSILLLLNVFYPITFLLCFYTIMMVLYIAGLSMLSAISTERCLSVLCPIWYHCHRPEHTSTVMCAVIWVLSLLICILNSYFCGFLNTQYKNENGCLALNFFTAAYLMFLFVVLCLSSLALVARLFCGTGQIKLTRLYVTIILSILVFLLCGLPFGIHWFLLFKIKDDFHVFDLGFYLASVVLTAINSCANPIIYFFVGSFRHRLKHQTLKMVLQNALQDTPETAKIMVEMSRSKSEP

mice [4] = assay: Plasma injection assay: scratching bouts after injection of mouse or human plasma; assay type: in vivo; details: plasma treated with FeCl3 (vs NT), one value per animal
Excerpt: Plasma from patients suffering from hyperbilirubinemia, specifically cholestasis, was isolated under a protocol approved by the Institutional Review Board at the Johns Hopkins University School of Medicine (Study number: IRB00154650). […] Both cholestatic and control plasma were isolated under protocols approved by the Institutional Review Board at the Johns Hopkins University School of Medicine (Cholestasis Study number: IRB00154650; Control study number: NA_00013177, the Johns Hopkins Department of Dermatology Patient Database and Tissue Bank). Whole blood was collected into PAXgene tubes (PreAnalytiX 761115) and centrifuged for 5 min at 300 g. Plasma was then collected, aliquoted, and stored at −20°C until experimentation. […] All applicable behavioral tests were performed and analysed with the experimenter blind to genotype. […] There were no significant differences in itch between male and female mice. […] On the day before the experiment, animals were placed in the test chamber for 30 min before being subjected to a series of three mock injections with 5 min break periods in between. On the day of the experiment, animals were first allowed to acclimatize to the test chamber for 10 min before injection. […] A bout of scratching was defined as a continuous scratching movement with either hindpaw directed at the area of the injection site. In the cheek injection model, a wipe was defined as a single forepaw stroking the site of the injection. Use of both forepaws on the face or cheek was considered as grooming behavior. […] For H1R block, 30 mg/kg of cetirizine HCl (pH 7.4) was given intraperitoneally thirty minutes prior to injection of bilirubin. Licking behavior was quantified in seconds and identified as the licking of the toes or footpad of the hind paw site of injection that was neither preceded nor followed by licking of any other portion of the body.

mice [5] = assay: Cheek injection model: scratching bouts and wiping; assay type: in vivo, mouse; details: injected into cheek: 1.3 mM deoxycholic acid, 4 mM LPA
Method: All applicable behavioral tests were performed and analysed with the experimenter blind to genotype. […] There were no significant differences in itch between male and female mice. […] On the day before the experiment, animals were placed in the test chamber for 30 min before being subjected to a series of three mock injections with 5 min break periods in between. On the day of the experiment, animals were first allowed to acclimatize to the test chamber for 10 min before injection. […] A bout of scratching was defined as a continuous scratching movement with either hindpaw directed at the area of the injection site. In the cheek injection model, a wipe was defined as a single forepaw stroking the site of the injection. Use of both forepaws on the face or cheek was considered as grooming behavior. […] For H1R block, 30 mg/kg of cetirizine HCl (pH 7.4) was given intraperitoneally thirty minutes prior to injection of bilirubin. Licking behavior was quantified in seconds and identified as the licking of the toes or footpad of the hind paw site of injection that was neither preceded nor followed by licking of any other portion of the body.

DRG neurons = assay: Ca2+ imaging of cultured DRG neurons; assay type: cell-based, mouse
Method: All cultured cells were maintained in DMEM supplemented with 10% FBS and 1% Penicillin/Streptomycin at 37°C, 5% CO2. […] Cells were imaged in calcium imaging buffer (CIB; 10 mM HEPES, 1.2 mM NaHCO3, 130 mM NaCl, 3 mM KCl, 2.5 mM CaCl2, 0.6 mM MgCl2, 20 mM glucose, and 20 mM sucrose at pH 7.4 and 290–300 mOsm). To monitor changes in intracellular [Ca^2+] ([Ca^2+]i), cells were loaded with either Fura 2-AM (HEK293 cells) or Fluo 4-AM (DRG neurons and mast cells) for 30 min in the dark at 37°C in CIB just prior to imaging. With Fura 2-AM, emission at 510 nm was monitored from excitation at both 340 nm and 380 nm. With Fluo 4-AM, emission at 520 nm was monitored from excitation at 488 nm. Cells were identified as responding if the intracellular [Ca^2+] rose by either 50% compared to baseline or 50% compared to the [Ca^2+]i change assayed during addition of 50 mM KCl (neurons only). Damaged, detached, high-baseline, and motion-activated cells were excluded from analysis.
DRGs were incubated with Fluo-4 AM 24 hr after dissociation (native genotype) or 48 hr after dissociation (virally transduced). Unless otherwise noted, cells were imaged for 20 seconds to establish a baseline before compounds were added. After 30 s, a 2 min wash was applied before addition of another substances. At the end of every imaging trial, 50 mM KCl was added as a positive control. […] For ruthenium red inhibitor experiments, neurons were incubated with 10 µM ruthenium red for 5 min prior to imaging. Percentage activated was determined as earlier described.
DRG neurons from all spinal levels were collected in cold DH10 media (90% Dulbecco’s modified Eagle’s medium (DMEM)/F-12, 10% FBS, penicillin (100 U/mL), and streptomycin (100 μg/mL)). DRGs were digested with a dispase (5 mg/ml)/collagenase type I (1 mg/ml) enzyme mixture at 37°C for 45 min. After trituration, cells were spun at 300 g and re-suspended in DH10 before being plated on glass coverslips coated with poly-D-lysine (0.5 mg/ml) and laminin (10 μg/ml, Invitrogen). DRGs were cultured with DH10 supplemented with 50 ng/mL NGF at 37°C.

Compound: CC(C)(C)OC(=O)N[C@@H](CCC(N)=O)C(=O)N[C@H](Cc1cn(C=O)c2ccccc12)C(=O)N[C@@H](Cc1ccccc1)C(=O)OCc1ccccc1 [QWF, BOC-GLN-D-(FORMYL)TRP-PHE-BENZYLESTER] (Boc-Gln-[dW](For)-Phe-OBn)
- t1/2 in plasma [1]: 1.17 h
- Plasma levels of total bilirubin, AST, ALT, ALP [2]: did not change plasma levels of total bilirubin, AST, ALT, or ALP

Compound: QWF (BOC-GLN-D-(FORMYL)TRP-PHE-BENZYLESTER) (peptide)
- inhibition of the bilirubin-induced Ca2+ signal in MRGPRA1-expressing HEK cells (200 µM bilirubin kept in competition with varied doses of QWF) [3]: 2.9 µM

Compound: [Cl][Fe]([Cl])[Cl] [FeCl3]
- Scratching bouts after injection of plasma (mice [4]; NT values equal cholestasis WT c1 of sheet Fig 7 - CD): 75 and 132 and 54 and 111 and 173 and 58 and 34
- Scratching bouts after injection of plasma (mice [4]; NT/FeCl3 pair, NT values equal cholestasis WT c7 of sheet Fig 7 - CD): 117 and 53 and 60 and 54 and 67
- Scratching bouts after injection of plasma (mice [4]; NT/FeCl3 pair, plasma source not given): 45 and 53 and 51 and 41 and 34

Compound: C[C@H](CCC(=O)O)[C@H]1CC[C@H]2[C@@H]3CC[C@@H]4C[C@H](O)CC[C@]4(C)[C@H]3C[C@H](O)[C@]12C [deoxycholic acid, reference compound]
- Scratching in WT versus Mrgpr-cluster KO animals (mice [5]): equivalent degrees of scratching in WT and Mrgpr-cluster KO animals

Compound: N.N.N.N.N.N.N.N.N.N.N.N.N.N.[Cl-].[Cl-].[Cl-].[Cl-].[Cl-].[Cl-].[O-2].[O-2].[Ru+3].[Ru+3].[Ru+4] [ruthenium red, reference compound]
- Effect on activation of sensory neurons by bilirubin (DRG neurons; 10 µM ruthenium red, 50 µM bilirubin): prevented bilirubin from activating sensory neurons
- Percent activated neurons by 50 µM bilirubin (DRG neurons; WT neurons incubated with 10 µM ruthenium red (Fig 4G)): 0.73%

Compound: lysophosphatidic acid [LPA, reference compound]
- Scratching in WT versus Mrgpr-cluster KO animals (mice [5]): equivalent degrees of scratching in WT and Mrgpr-cluster KO animals
